Data set [1] deals with T1, Solute carrier organic anion transporter family member 1B1 (Homo sapiens, UniProt Q9Y6L6).
T1 sequence (Q9Y6L6 whole entry): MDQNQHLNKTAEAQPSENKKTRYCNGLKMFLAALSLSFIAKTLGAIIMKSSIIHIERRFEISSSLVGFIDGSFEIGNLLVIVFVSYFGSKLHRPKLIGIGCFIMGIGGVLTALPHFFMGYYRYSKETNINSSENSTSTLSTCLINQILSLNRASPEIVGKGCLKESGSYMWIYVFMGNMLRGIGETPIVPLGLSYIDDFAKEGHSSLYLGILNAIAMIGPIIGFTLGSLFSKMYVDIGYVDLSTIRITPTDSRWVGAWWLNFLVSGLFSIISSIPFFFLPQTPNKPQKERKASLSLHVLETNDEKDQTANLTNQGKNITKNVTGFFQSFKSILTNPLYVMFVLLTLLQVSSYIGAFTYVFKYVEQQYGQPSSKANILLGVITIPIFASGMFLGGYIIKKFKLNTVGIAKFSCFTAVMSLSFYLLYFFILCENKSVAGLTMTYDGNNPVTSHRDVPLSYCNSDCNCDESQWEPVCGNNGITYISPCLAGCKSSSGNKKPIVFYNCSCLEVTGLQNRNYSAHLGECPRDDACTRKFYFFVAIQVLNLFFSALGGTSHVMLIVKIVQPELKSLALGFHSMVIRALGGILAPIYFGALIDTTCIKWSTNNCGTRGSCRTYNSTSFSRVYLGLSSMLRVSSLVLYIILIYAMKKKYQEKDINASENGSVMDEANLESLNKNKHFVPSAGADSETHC
Description: TP_TRANSPORTER: uptake in OATP1B1-expressing HEK293 cell. Type of data set: functional, cell-based.

Data set [2] addresses T2, OATP1B1 (SLCO1B1) (Homo sapiens, UniProt Q9Y6L6).
T2 sequence (Q9Y6L6 whole entry): T1 sequence (Q9Y6L6 whole entry)
Description: TP_TRANSPORTER: inhibition of Estrone-3-sulfate uptake(Estrone-3-sulfate: 9.2nM) in Xenopus laevis oocytes. Type of data set: functional, cell-based, Oocyte. Further details: scale not given: the % may be the effect or the level left. The following applies: probe estrone-3-sulfate.

For data set [3], the target named is T1, Solute carrier organic anion transporter family member 1B1. Description: TP_TRANSPORTER: inhibition of E1S uptake (SN38 G 10 u M) in OATP1B1-expressing HEK293 cells. Type of data set: functional, cell-based. To be noted: hek293, 10 µM.
Data set [4] has as its target T3, Solute carrier organic anion transporter family member 1B3 (Homo sapiens, UniProt Q9NPD5).
T3 sequence (Q9NPD5 whole entry): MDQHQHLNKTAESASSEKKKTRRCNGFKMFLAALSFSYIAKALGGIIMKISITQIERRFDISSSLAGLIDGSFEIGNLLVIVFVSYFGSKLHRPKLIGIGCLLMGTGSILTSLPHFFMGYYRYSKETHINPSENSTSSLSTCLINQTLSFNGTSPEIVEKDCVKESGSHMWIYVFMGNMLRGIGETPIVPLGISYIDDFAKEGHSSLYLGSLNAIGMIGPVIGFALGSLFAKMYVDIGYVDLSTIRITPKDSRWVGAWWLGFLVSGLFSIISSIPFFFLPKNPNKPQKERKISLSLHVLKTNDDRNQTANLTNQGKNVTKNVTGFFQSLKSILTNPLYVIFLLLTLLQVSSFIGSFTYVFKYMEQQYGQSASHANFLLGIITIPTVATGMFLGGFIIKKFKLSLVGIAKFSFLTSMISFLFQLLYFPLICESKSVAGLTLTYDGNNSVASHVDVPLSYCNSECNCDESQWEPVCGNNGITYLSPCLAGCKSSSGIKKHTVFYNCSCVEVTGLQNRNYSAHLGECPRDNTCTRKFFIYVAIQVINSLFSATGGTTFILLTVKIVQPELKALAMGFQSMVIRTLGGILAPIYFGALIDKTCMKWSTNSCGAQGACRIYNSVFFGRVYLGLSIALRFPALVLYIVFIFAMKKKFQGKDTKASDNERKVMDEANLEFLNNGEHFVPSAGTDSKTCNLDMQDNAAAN
Description: TP_TRANSPORTER: uptake of SN-38 at a concentration of 0.09uL/oocyte in Xenopus laevis oocytes. It counts as functional, cell-based.

In data set [5] the target is T1, Solute carrier organic anion transporter family member 1B1. Description: TP_TRANSPORTER: uptake of SN-38 at a concentration of 0.16uL/oocyte in Xenopus laevis oocytes. Type of data set: functional, cell-based.
Data set [6] has the same target. Description: TP_TRANSPORTER: uptake in OATP1B1-expressing HEK293 cells. Type of data set: functional, cell-based.
The target in data set [7] is T4, Solute carrier organic anion transporter family member 2B1 (Homo sapiens, UniProt O94956).
T4 sequence (O94956 whole entry): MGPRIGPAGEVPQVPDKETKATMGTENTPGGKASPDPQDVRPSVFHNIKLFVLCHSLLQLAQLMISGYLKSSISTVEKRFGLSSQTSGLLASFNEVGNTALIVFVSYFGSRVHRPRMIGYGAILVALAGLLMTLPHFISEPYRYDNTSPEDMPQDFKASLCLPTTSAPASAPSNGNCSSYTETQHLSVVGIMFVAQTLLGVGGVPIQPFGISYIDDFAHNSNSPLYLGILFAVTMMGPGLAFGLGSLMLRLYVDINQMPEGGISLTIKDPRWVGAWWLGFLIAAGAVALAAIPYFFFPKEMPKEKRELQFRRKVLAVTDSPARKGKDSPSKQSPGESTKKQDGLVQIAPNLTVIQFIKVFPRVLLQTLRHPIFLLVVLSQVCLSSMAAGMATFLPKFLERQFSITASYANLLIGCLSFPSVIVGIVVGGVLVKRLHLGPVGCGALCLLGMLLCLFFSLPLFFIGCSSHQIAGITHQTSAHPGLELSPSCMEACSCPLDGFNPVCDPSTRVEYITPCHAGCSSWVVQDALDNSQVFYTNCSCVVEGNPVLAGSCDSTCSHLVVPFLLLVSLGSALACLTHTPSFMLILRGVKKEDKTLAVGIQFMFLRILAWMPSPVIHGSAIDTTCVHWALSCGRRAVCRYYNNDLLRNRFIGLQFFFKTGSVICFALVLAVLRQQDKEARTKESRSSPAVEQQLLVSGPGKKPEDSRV
Description: TP_TRANSPORTER: uptake of SN-38 at a concentration of 0.10uL/oocyte in Xenopus laevis oocytes. It counts as functional, cell-based.

The target of data set [8] is T1, Solute carrier organic anion transporter family member 1B1. Description: TP_TRANSPORTER: inhibition of E1S uptake (SN38 10 u M) in OATP1B1-expressing HEK293 cells. Type of data set: functional, cell-based. The arrangement: scale not given: the % may be the effect or the level left. The following applies: hek293, 10 µM.
Data set [9] deals with T3, Solute carrier organic anion transporter family member 1B3. Description: TP_TRANSPORTER: cell accumulation in OATP8-expressing Xenopus oocytes. Type of data set: functional, cell-based. The following applies: xenopus laevis, oocyte.
Data set [10] concerns the target T1, Solute carrier organic anion transporter family member 1B1. Description: TP_TRANSPORTER: cell accumulation in OATP-C-expressing Xenopus oocytes. It counts as functional, cell-based. The following applies: xenopus laevis, oocyte.
Data set [11] deals with T2, OATP1B1 (SLCO1B1). Description: TP_TRANSPORTER: inhibition of E1S uptake (irinotecan 10 u M) in OATP1B1-expressing HEK293 cells. It counts as functional, cell-based. Further details: scale not given: the % may be the effect or the level left. To be noted: HEK293 cells expressing OATP1B1, probe estrone-3-sulfate (E1S), read-out: Activity.
Data set [12] has as its target T5, OATP8 (OATP1B3, SLCO1B3) (Homo sapiens, UniProt Q9NPD5).
T5 sequence (Q9NPD5 whole entry): T3 sequence (Q9NPD5 whole entry)
Description: TP_TRANSPORTER: inhibition of estrone-3-sulfate uptake (Estrone-3-sulfate: 9.2 nM) by Pioglitazone at a concentration of 10uM in OATP8-expressing Xenopus oocytes. It counts as functional, cell-based, Oocyte. To be noted: xenopus laevis, Xenopus laevis oocytes expressing OATP8, probe estrone-3-sulfate.

In data set [13] the target is T6, OATP-C (OATP1B1, SLCO1B1) (Homo sapiens, UniProt Q9Y6L6).
T6 sequence (Q9Y6L6 whole entry): T1 sequence (Q9Y6L6 whole entry)
Description: TP_TRANSPORTER: inhibition of estrone-3-sulfate uptake (Estrone-3-sulfate: 9.2 nM) by Pioglitazone at a concentration of 10uM in OATP-C-expressing Xenopus oocytes. Type of data set: functional, cell-based, Oocyte. The following applies: xenopus laevis, probe estrone-3-sulfate.

Data set [14] deals with T5, OATP8 (OATP1B3, SLCO1B3). Description: TP_TRANSPORTER: inhibition of estrone-3-sulfate uptake (Estrone-3-sulfate: 9.2 nM) by Quinone Form at a concentration of 10uM in OATP8-expressing Xenopus oocytes. Type of data set: functional, cell-based, Oocyte. The following applies: xenopus laevis, Xenopus laevis oocytes expressing OATP8, probe estrone-3-sulfate.
Data set [15] deals with T6, OATP-C (OATP1B1, SLCO1B1). Description: TP_TRANSPORTER: inhibition of estrone-3-sulfate uptake (Estrone-3-sulfate: 9.2 nM) by Quinone Form at a concentration of 10uM in OATP-C-expressing Xenopus oocytes. To be noted: xenopus laevis, probe estrone-3-sulfate. It counts as functional, cell-based, Oocyte.
Data set [16] deals with T6, OATP-C (OATP1B1, SLCO1B1). Description: TP_TRANSPORTER: inhibition of estrone-3-sulfate uptake (Estrone-3-sulfate: 9.2 nM) by Rosiglitazone at a concentration of 10uM in OATP-C-expressing Xenopus oocytes. The following applies: xenopus laevis, probe estrone-3-sulfate. It counts as functional, cell-based, Oocyte.
Data set [17] addresses T6, OATP-C (OATP1B1, SLCO1B1). Description: TP_TRANSPORTER: inhibition of estrone-3-sulfate uptake (Estrone-3-sulfate: 9.2 nM) by Troglitazone glucuronide at a concentration of 10uM in OATP-C-expressing Xenopus oocytes. To be noted: xenopus laevis, probe estrone-3-sulfate. It counts as functional, cell-based, Oocyte.
In data set [18] the target is T5, OATP8 (OATP1B3, SLCO1B3). Description: TP_TRANSPORTER: inhibition of estrone-3-sulfate uptake (Estrone-3-sulfate: 9.2 nM) by Troglitazone sulfate at a concentration of 10uM in OATP8-expressing Xenopus oocytes. The following applies: xenopus laevis, Xenopus laevis oocytes expressing OATP8, probe estrone-3-sulfate. It counts as functional, cell-based, Oocyte.
In data set [19] the target is T6, OATP-C (OATP1B1, SLCO1B1). Description: TP_TRANSPORTER: inhibition of estrone-3-sulfate uptake (Estrone-3-sulfate: 9.2 nM) by Troglitazone sulfate at a concentration of 10uM in OATP-C-expressing Xenopus oocytes. Type of data set: functional, cell-based, Oocyte. The following applies: xenopus laevis, probe estrone-3-sulfate.
Data set [20] has as its target T6, OATP-C (OATP1B1, SLCO1B1). Description: TP_TRANSPORTER: inhibition of estrone-3-sulfate uptake (Estrone-3-sulfate: 9.2 nM) by Troglitazone at a concentration of 10uM in OATP-C-expressing Xenopus oocytes. It counts as functional, cell-based, Oocyte. To be noted: xenopus laevis, probe estrone-3-sulfate.

Structures are written as SMILES. Structures can show the parent of a compound that is named as a salt.

`CCc1c2c(nc3ccc(OC[C@@H]4O[C@H](C(=O)O)[C@@H](O)[C@H](O)[C@H]4O)cc13)-c1cc3c(c(=O)n1C2)COC(=O)[C@]3(O)CC`: the Activity entry in data set [1] is “is not a substrate [-]”; in data set [2] it was 45%; in [3], “is not an inhibitor [-]”.

For the compound `CCc1c2c(nc3ccc(O)cc13)-c1cc3c(c(=O)n1C2)COC(=O)[C@]3(O)CC` [7-ETHYL-10-HYDROXYCAMPTOTHECIN], the Activity entry in [4] is “is not a substrate [-]”; in data set [1], “substrate [+]”; in data set [2], 85%; in [5] it was “substrate [+]”; in data set [6] it was “substrate []”; in [7], “is not a substrate [-]”. In addition, the Activity in data set [8] came out at 50%.

For the compound `C[C@]12CC[C@@H]3c4ccc(OS(=O)(=O)O)cc4CC[C@H]3[C@@H]1CCC2=O` [ESTRONE SULFURIC ACID], the Activity entry in data set [9] and in data set [10] was “substrate []” each time.

As for `CCc1c2c(nc3ccc(OC(=O)N4CCC(N5CCCCC5)CC4)cc13)-c1cc3c(c(=O)n1C2)COC(=O)[C@]3(O)CC` [IRINOTECAN], the values for the Activity entry in [1] and in [2] were “is not a substrate [-]” and 60%, respectively. Moreover, the activity at 10 µM in [11] stood at 60%.

In general, inhibition refers to the change of the read-out against control, counted positive when it falls. In the case of `CCc1ccc(CCOc2ccc(CC3SC(=O)NC3=O)cc2)nc1` (stereo not given) [PIOGLITAZONE], the values for the inhibition at 10 µM in [12] and in [13] were 65% and 70%, respectively.

Turning to `CC1=CC(=O)C(C)=C(CCC(C)(C)COc2ccc(CC3SC(=O)NC3=O)cc2)C1=O` (stereo not given) [QUINONE FORM], the inhibition at 10 µM was determined as 60% in data set [14] and 20% in [15].

As for `CN(CCOc1ccc(CC2SC(=O)NC2=O)cc1)c1ccccn1` (stereo not given) [ROSIGLITAZONE], the inhibition at 10 µM in [16] stood at 60%.

In the case of `Cc1c(C)c2c(c(C)c1O[C@@H]1O[C@H](C(=O)O)[C@@H](O)[C@H](O)[C@H]1O)CCC(C)(COc1ccc(CC3SC(=O)NC3=O)cc1)O2` (stereo not given in full) [TROGLITAZONE GLUCURONIDE], in data set [17], the inhibition at 10 µM was 30%.

With `Cc1c(C)c2c(c(C)c1OS(=O)(=O)O)CCC(C)(COc1ccc(CC3SC(=O)NC3=O)cc1)O2` (stereo not given) [TROGLITAZONE SULFATE], the inhibition at 10 µM in data set [18] is 20%; in [19], 5%. Besides, the Activity result in data set [10] is “substrate []”.

`Cc1c(C)c2c(c(C)c1O)CCC(C)(COc1ccc(CC3SC(=O)NC3=O)cc1)O2` (stereo not given) [TROGLITAZONE]: the inhibition at 10 µM in [20] stood at 35%.

The values above are taken from ChEMBL document CHEMBL2073784, “Involvement of organic anion transporting polypeptides in the transport of troglitazone sulfate: implications for understanding troglitazone hepatotoxicity” (Drug Metab Dispos, 2004).
